Our source for the IC50 values is US20240383893A1, “Hydroxamic Acid Compound Having ENPP1 Inhibitory Activity and Use Thereof” (Haihe Biopharma Co., Ltd., priority 2021, published 2024).

ENPP1 (hENPP1-ECD-His), sequence (P22413 98-925): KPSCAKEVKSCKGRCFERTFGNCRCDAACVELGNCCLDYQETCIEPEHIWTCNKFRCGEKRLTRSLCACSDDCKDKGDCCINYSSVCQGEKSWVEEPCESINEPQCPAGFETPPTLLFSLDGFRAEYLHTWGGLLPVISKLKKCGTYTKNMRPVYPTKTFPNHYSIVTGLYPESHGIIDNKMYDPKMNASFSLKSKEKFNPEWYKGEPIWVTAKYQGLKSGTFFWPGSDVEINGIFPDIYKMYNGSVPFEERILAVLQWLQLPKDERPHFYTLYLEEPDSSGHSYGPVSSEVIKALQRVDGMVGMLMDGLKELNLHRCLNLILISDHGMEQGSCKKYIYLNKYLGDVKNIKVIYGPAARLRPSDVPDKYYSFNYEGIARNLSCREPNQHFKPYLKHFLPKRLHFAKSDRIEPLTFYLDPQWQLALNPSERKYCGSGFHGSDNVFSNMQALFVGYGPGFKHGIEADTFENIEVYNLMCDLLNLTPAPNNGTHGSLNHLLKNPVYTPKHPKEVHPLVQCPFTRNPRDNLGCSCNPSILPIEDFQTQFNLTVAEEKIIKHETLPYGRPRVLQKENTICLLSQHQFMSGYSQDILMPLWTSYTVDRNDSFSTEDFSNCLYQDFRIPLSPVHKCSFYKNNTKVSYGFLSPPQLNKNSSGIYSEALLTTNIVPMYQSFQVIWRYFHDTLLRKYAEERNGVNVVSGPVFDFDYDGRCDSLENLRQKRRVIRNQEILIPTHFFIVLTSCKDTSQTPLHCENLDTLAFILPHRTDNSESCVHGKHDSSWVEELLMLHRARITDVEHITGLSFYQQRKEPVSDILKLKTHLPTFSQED

The experiment has as its target ENPP1 (hENPP1-ECD-His) (Homo sapiens (Human), UniProt P22413).
Broadly, the IC50 is the concentration that gives 50% inhibition. Higher therefore signals lower potency. For the compound `COc1ccc2c(Nc3ccc(C(C(=O)NO)C(C)C)c(F)c3)ccnc2n1` (stereo not drawn) [Compound 160], half-maximal inhibition (IC50) was put at 15 nM.
`COc1ccc2c(Oc3ccc(C(C)(C(=O)NO)C4CCOCC4)cc3)ccnc2n1` (stereo not drawn) [Compound 172]: the IC50 is 3.1 nM.
The figure for `Cc1cc(Nc2ncnc3ccccc23)ccc1CC(=O)NO` [Compound 24] is 36 nM.
As for `COc1ccc2c(CN3CCC(C(C)(C)C(=O)NO)C3)ccnc2n1` (stereo not drawn) [Compound 157], the figure is 81 nM.
As for `COc1cc2nccc(Nc3c(F)cc(C(CC(C)C)C(=O)NO)cc3F)c2cn1` (stereo not drawn) [Compound 184], the figure is 2.2 nM; as for `COc1ccc2c(O[C@H]3CCN(C(C)(C)C(=O)NO)C3)ccnc2n1` [Compound 205], 39 nM.
The compound `COc1ccc2c(N(C)c3ccc(C(C)(C)C(=O)NO)cc3)ccnc2n1` [Compound 114] had an IC50 of 162 nM.
The figure for `CCn1ncc2c(Oc3cccc(C(=O)NO)c3)ccnc21` [Compound 76] is 289 nM.
The compound `COc1cc2nccc(Oc3ccc(C(C)(C)C(=O)NO)cc3)c2cn1` [Compound 97] returned an IC50 of 1.5 nM.
The figure for `COc1cc2nccc(Nc3ccc(C(CC(C)C)C(=O)NO)cc3)c2cn1` (stereo not drawn) [Compound 179] is 1 nM.
Compound `COc1ccc2c(Cc3ccc(C4(C(=O)NO)CCCC4)cc3)ccnc2n1` [Compound 141, N-hydroxy-1-(4-((7-methoxy-1,8-naphthylidin-4-yl)methyl)phenyl)cyclopentane-1-formamide] gave an IC50 of 1.4 nM.
As for `COc1ccc2c(C(C)c3ccc(C(C)(C)C(=O)NO)cc3)ccnc2n1` (stereo not drawn) [Compound 113], the figure is 219 nM; as for `COc1cc2nccc(Nc3ccc(CC(=O)NO)c(F)c3)c2cn1` [Compound 189], 1.8 nM; as for `COc1ccc2c(Oc3ccc(C(CC(C)C)C(=O)NO)c(F)c3)ccnc2n1` (stereo not drawn) [Compound 201], 11 nM.
As for `COc1ccc2c(Oc3cccc(C(=O)NO)c3)ccnc2n1` [Compound 63], the figure is 212 nM; as for `CCn1ncc2c(Nc3ccc(CC(=O)NO)cc3)ncnc21` [Compound 33], 2.4 nM; as for `CCn1ncc2c(Oc3ccc(C4(C(=O)NO)CC4)cc3)ccnc21` [Compound 54], 1.6 nM.
Turning to `COc1ccc2c(Nc3ccc(C4(C(=O)NO)CCOCC4)cc3)ccnc2c1` [Compound 164], the IC50 was found to be 3.4 nM.
`COc1ccc2c(Oc3ccc(C4(C(=O)NO)CCOCC4)cc3Cl)ccnc2n1` [Compound 138]: the midpoint of inhibition, the IC50, lay at 6 nM.
Consider `COc1ccc2c(Oc3ccc(C(C)C(=O)NO)cc3)ccnc2n1` (stereo not drawn) [Compound 27], for which the IC50 turned out to be 2.1 nM.
Compound `COc1cc2nccc(Nc3ccc(C4(C(=O)NO)CCOCC4)c(F)c3)c2cn1` [Compound 181] registered a half-maximal inhibitory concentration (IC50) of 1.9 nM. This IC50 and that of the compound before are within 1.5-fold of each other.
As for `COc1ccc2c(Nc3ccc(CC(=O)NO)cc3)ncnc2c1` [Compound 10], the IC50 is 2.7 nM.
As for `Cn1ncc2c(Oc3ccc(CC(=O)NO)cc3)ccnc21` [Compound 28], the figure is 14 nM; as for `COc1ccc2nccc(Oc3ccc(C(C)(C)C(=O)NO)cc3)c2c1` [Compound 99], 63 nM; as for `COc1ccc2c(Oc3ccc(N4CCC[C@H]4C(=O)NO)cc3)ccnc2n1` [Compound 196, (S)—N-hydroxy-1-(4-((7-methoxy-1,8-naphthylidin-4-yl)oxy)phenyl)pyrrolidin-2-formamide], 130 nM.
For `COc1ccc2c(Oc3cccc(CC(=O)NO)c3)ccnc2n1` [Compound 75], the IC50 worked out at 112 nM.
As for `Cc1nn(C)c2nccc(Oc3ccc(C(C)(C)C(=O)NO)cc3)c12` [Compound 84], the figure is 6.1 nM; as for `COc1cc2nccc(Nc3ccc(C4(C(=O)NO)CCOCC4)cc3F)c2cn1` [Compound 178], 1.2 nM.
`CCC(CC)(C(=O)NO)c1ccc(Oc2ccnc3nc(OC)ccc23)cc1` [Compound 124] registered an IC50 of 1.6 nM.
The figure for `COc1ccc2c(Nc3ccc(CC(=O)NO)cc3)ncnc2n1` [Example 1, N-hydroxy-2-(4-((7-methoxypyridino[2,3-d]pyrimidin-4-yl)amino)phenyl)acetamide] is 1.8 nM.
Consider `Cn1ncc2c(Oc3ccc(C4(C(=O)NO)CCCC4)cc3)ccnc21` [Compound 129], for which the IC50 was determined as 5.7 nM.
Regarding `CCn1ncc2c(Nc3ccc(C4(C(=O)NO)CCOCC4)cc3)ccnc21` [Compound 163], it took 2.9 nM to reach half-maximal inhibition (IC50). This IC50 is about 2-fold lower than that of the compound before.
The figure for `CCn1ncc2c(Nc3ccc(C(C)(C)C(=O)NO)cc3)ncnc21` [Compound 91] is 1.2 nM; for `COc1ccc2c(Nc3cnn(C(C(=O)NO)C(C)C)c3)ccnc2n1` (stereo not drawn) [Compound 167] it is 103 nM.
The figure for `COc1cc2nccc(Oc3ccc(C4(C(=O)NO)CCCC4)cc3)c2cn1` [Compound 123] is 1.2 nM; for `Cc1ccc2c(Nc3ccc(CC(=O)NO)cc3)ncnc2n1` [Compound 60] it is 673 nM; for `COc1ccc2c(N3CCc4cc(C5(C(=O)NO)CCOCC5)ccc43)ccnc2n1` [Compound 158] it is 9.9 nM.
`Cn1ncc2c(Oc3ccc(C4(C(=O)NO)CCOCC4)c(Cl)c3)ccnc21` [Compound 197] yielded an IC50 of 111 nM.
`COc1ccc2c(Nc3ccc(CC(=O)NO)c(Cl)c3)ccnc2n1` [Compound 78] had an IC50 of 1.8 nM.
Compound `COc1ccc2c(Oc3ccc4c(C(=O)NO)cccc4c3)ccnc2n1` [Compound 92] yielded an IC50 of 169 nM.
The figure for `COc1ccc2c(Oc3ccc(C4(C(=O)NO)CCCOCC4)cc3)ccnc2n1` (stereo not drawn) [Compound 175] is 1.9 nM; for `COc1ccc2c(Nc3ccc4c(c3)CCC4C(=O)NO)ccnc2n1` (stereo not drawn) [Compound 51] it is 2.5 nM; for `COc1ccc2c(Nc3ccc(CC(=O)NO)c(OC)c3)ccnc2n1` [Compound 79] it is 1.9 nM.
As for `O=C(Cc1ccc(Nc2ncnc3ccccc23)cc1)NO` [Compound 16], the figure is 64 nM; as for `COc1ccc2c(Oc3ccc(C(CC(C)C)C(=O)NO)cc3)ccnc2n1` (stereo not drawn) [Compound 132], 6.6 nM.
Consider `CCn1ncc2c(Nc3ccc(CC(=O)NO)cc3)ccnc21` [Compound 49], for which the IC50 came out at 1.4 nM. This IC50 is about 4.7-fold lower than that of the compound before.
The compound `COc1ccc2c(Nc3ccc(C4(C(=O)NO)CCOCC4)c(F)c3)ccnc2n1` [Compound 162] registered an IC50 of 3 nM.
The figure for `O=C(Cc1ccc(Nc2ncnc3ncccc23)cc1)NO` [Compound 39] is 205 nM; for `CCOc1ccc2c(Oc3ccc(CC(=O)NO)cc3)ccnc2c1` [Compound 98] it is 125 nM.
The figure for `COc1ccc2c(Oc3ccc(C(C)C(=O)NO)cc3F)ccnc2n1` (stereo not drawn) [Compound 72] is 2.2 nM.
The figure for `COc1ccc2c(Oc3ccc4c(c3)CCCC4C(=O)NO)ccnc2n1` (stereo not drawn) [Compound 145] is 4.2 nM; for `COc1ccc2c(Oc3ccc(CC(=O)NO)cc3C)ccnc2n1` [Compound 21] it is 3.1 nM.
In the case of `CONC(=O)C(C)(C)c1ccc(Oc2ccnc3cc(OC)c(OC)cc23)cc1` [Example A-2, reference compound], the IC50 amounted to 3280 nM.
On to `Cc1cc(Oc2ccc(C(C)(C)C(=O)NO)cc2)c2cnn(C)c2n1` [Compound 58], for which the IC50 was 41 nM.
Turning to `Cn1ncc2c(Oc3ccc(C(C)(C)C(=O)NO)cc3)ccnc21` [Compound 41], half-maximal inhibition (IC50) was put at 3 nM. Against the preceding compound, the IC50 is about 14-fold lower.
Consider `COc1ccc2c(N3CCc4cc(CC(=O)NO)ccc43)ccnc2n1` [Compound 204], for which half-maximal inhibition (IC50) was put at 24 nM.
As for `CCn1ncc2c(Nc3ccc(C(C)(C)C(=O)NO)cc3)ccnc21` [Compound 82], the figure is 1.7 nM; as for `COc1ccc2c(Nc3ccc(C(C)(C)C(=O)NO)cc3)ccnc2n1` [Compound 69], 1.9 nM; as for `COc1ccc2c(Nc3ccc(CC(=O)NO)cc3)ccnc2c1` [Compound 4], 2.62 nM.
For `COc1cc2nccc(Nc3c(F)cc(C(C(=O)NO)C(C)C)cc3F)c2cn1` (stereo not drawn) [Compound 185], the IC50 was 3.6 nM.
As for `COc1ccc2c(Oc3ccc(C(C(=O)NO)C4CCCC4)cc3)ccnc2n1` (stereo not drawn) [Compound 170], inhibition was half-maximal at 18 nM (IC50).
As for `COc1ccc2c(Oc3ccc(C4(C(=O)NO)CC5CCC(C4)O5)cc3)ccnc2n1` (stereo not drawn) [Compound 176], the figure is 2.9 nM; as for `COc1cccc2c(Oc3ccc(CC(=O)NO)cc3)c(C#N)cnc12` [Compound 5], 150 nM; as for `COc1ccc2c(Nc3ccc(C(C)(C)C(=O)NO)cc3)cnnc2c1` [Compound 147], 1.5 nM.
As for `COc1ccc2c(Oc3cc(F)c(C(C)(C)C(=O)NO)c(F)c3)ccnc2n1` [Compound 46], the figure is 16 nM; as for `COc1ccc2c(Nc3cc(F)c(C(C)C(=O)NO)c(F)c3)ccnc2n1` (stereo not drawn) [Compound 48], 2.7 nM.
The figure for `COc1cc2nccc(Nc3ccc(CC(=O)NO)cc3)c2cc1OC` [Example A-1, reference compound] is 89 nM; for `COc1ccc2c(Nc3cc(F)c(C(C)C(=O)NO)cc3F)ccnc2n1` (stereo not drawn) [Compound 47] it is 4.5 nM; for `COc1cnc2c(Oc3ccc(CC(=O)NO)cc3)ccnc2c1` [Compound 20] it is 324 nM.
In the case of `COc1ccc2c(Nc3cnn(C4(C(=O)NO)CCOCC4)c3)ccnc2n1` [Compound 174], the IC50 came out at 2.1 nM. This IC50 is about 150-fold lower than that of the compound before.
As for `CCn1ncc2c(Oc3ccc(C(C)C(=O)NO)cc3)ccnc21` (stereo not drawn) [Compound 73], the figure is 8.6 nM; as for `Cn1c(=O)ccc2c(Nc3ccc(CC(=O)NO)cc3)ccnc21` [Compound 18, N-hydroxy-2-(4-((8-methyl-7-oxy-7,8-dihydro-1,8-naphthyridin-4-yl)amino)phenyl)acetamide], 343 nM; as for `COc1ccc2c(Nc3ncc(CC(=O)NO)cn3)ccnc2n1` [Compound 151], 70 nM.
The figure for `COc1ccc2c(Oc3ccc(CC(=O)NO)cc3)c(C#N)cnc2c1` [Compound 14] is 1.2 nM.
As for `COc1cc2ncnc(Oc3ccc(CC(=O)NO)cc3)c2cc1OC` [Compound 11], the figure is 28 nM.
Compound `COc1ccc2c(Nc3c(F)cc(C(C)C(=O)NO)cc3F)ccnc2n1` (stereo not drawn) [Compound 62] yielded an IC50 of 1.6 nM.
Turning to `COc1ccc2c(Nc3ccc(CC(=O)NO)cn3)ccnc2n1` [Compound 45], the IC50 is 3.1 nM. Compared with the last compound, the IC50 is about 1.9-fold higher.
With `COc1ccc2c(Oc3ccc(CC(=O)NO)c(F)c3)ccnc2n1` [Compound 25], the midpoint of inhibition, the IC50, lay at 1.9 nM.
